Reference: publication PMC9313812, “The Pseudo‐Natural Product Rhonin Targets RHOGDI” (Angewandte Chemie (International Ed. in English), 2022)

Assays:
[1] = system: NIH/3T3 cells; assay: Smoothened trafficking (ciliary localization of SMO); type: cell-based; settings: purmorphamine stimulation
Protocol: in fresh medium containing 0.5 % FBS and 5 nM BODIPY-cyclopamine for 4 h. Afterwards, cell nuclei were stained with 1 µg/ml DAPI for 10 min, samples were washed three times with PBS and subsequently mounted on glass slides using Aqua Polymount (Polysciences Inc).
Images were acquired on an Axiovert Observer Z1 microscope (Carl Zeiss, Germany) using a Plan-Apochromat 63x/1.40 Oil DIC M27 objective.
Additionally, SMO binding was confirmed by flow cytometry. HEK293T cells were seeded (3×10^5 per well) in 6-well plate and transfected with BFP-SMO-expressing plasmid using FuGENE HD transfection reagent according to the manufacturer’s instructions. After 48 h of incubation the medium was replaced by DMEM containing 0.5% FBS, 5 nM BODIPY-cyclopamine and various concentrations of the test compounds or DMSO as a control. […]
projections, after previous background subtraction. For quantification, cilia were identified and […]
Smoothened antibody were measured within these areas. […]
significances were assessed using an unpaired t-test (confidence interval of 95%) with the […]
replicates were performed and for each replicate at least 100 cilia per condition were analyzed.
Reverse transcription- quantitative PCR (RT-qPCR) […]
DNase I digestion step. The concentration of purified RNA was determined by means of the […]

[2] = system: Shh-LIGHT2 cells; assay: GLI-dependent reporter gene assay (RGA); type: cell-based; settings: for Inhibition of GLI-dependent reporter gene expression (in words): Shh-LIGHT2 cells
Protocol: using a three-fold dilution series starting from a concentration of 30 μM. Half-maximal inhibitory concentrations (IC50) were calculated using the Quattro software suite (Quattro Research, Planegg, Germany) or GraphPad Prism 7 (GraphPad, USA). […]
GLI-dependent reporter gene assay
Shh-LIGHT2 cells were seeded (2.5×10^4 per well) in 96-well plates. After incubation for 16 h, medium was replaced by low serum-containing medium (0.5% FCS) supplemented with 1.5 μM purmorphamine and various concentrations of the compounds or DMSO as a control and cells were incubated for 48 h. […]

Row | Compound | Localization of SMO to cilia (in words) [1] | Inhibition of GLI-dependent reporter gene expression (in words) [2] | IC50 ([2]; Shh Light2, Figure 2a, mean of three independent experiments)
1 | COC(=O)C1(C(CC(=O)c2cccnc2)c2ccccc2)N=C(c2ccc(Br)cc2)C2C(=O)N(C)C(=O)C21 (centres unmarked) [7l] | SMO was localized to the cilia | did not suppress | –
2 | COC(=O)C1(C(CC(=O)c2ccccc2)c2ccccc2)N=C(c2ccc(Br)cc2)C2C(=O)N(C)C(=O)C21 (centres unmarked) [7a] | did not affect the localization of SMO to cilia | did not inhibit | 1600 nM
